The structures appear in SMILES notation.

Test system in one series: not listed separately
As to the kind of experiment: Cytotoxicity against in human MT4 cells after 5 days by XTT assay. The class given is cell-based. Particulars: time 5 day.
`CC(C)OC(=O)[C@H](C)N[P@@](=O)(CO[C@H](C)Cn1cnc2c(N)ncnc21)Oc1ccc(C[C@H](NC(=O)OCc2ccccc2)C(=O)OC(C)C)cc1` had a half-maximal cytotoxic concentration (CC50) at 120 h of 13000 nM.
On the same count and under the same terms, the figure for `CC(C)OC(=O)[C@H](C)N[P@](=O)(CO[C@H](C)Cn1cnc2c(N)ncnc21)Oc1ccc(C[C@@H](NC(=O)OCc2ccccc2)C(=O)OC2CCCC2)cc1` is 20000 nM; for `CC(C)OC(=O)[C@H](C)N[P@@](=O)(CO[C@H](C)Cn1cnc2c(N)ncnc21)Oc1ccc(C[C@H](NCCCc2ccccc2)C(=O)OC2CCCC2)cc1` it is 7600 nM; for `COC(=O)[C@H](Cc1ccc(O[P@@](=O)(CO[C@H](C)Cn2cnc3c(N)ncnc32)N[C@@H](C)C(=O)OC(C)C)cc1)NC(=O)OCc1ccccc1` it is 16000 nM.
The same measure, in the same setting: next, `CC(C)OC(=O)[C@H](C)NP(=O)(CO[C@H](C)Cn1cnc2c(N)ncnc21)Oc1ccc(C[C@H](NC(=O)OCc2ccccc2)C(=O)OC(C)C)cc1` (stereo partly drawn): 9400 nM; `COC(=O)[C@H](Cc1ccc(O[P@](=O)(CO[C@H](C)Cn2cnc3c(N)ncnc32)N[C@@H](C)C(=O)OC(C)C)cc1)NC(=O)OCc1ccccc1`: 8500 nM.
Still for that read-out and setting: next, `COC(=O)[C@H](Cc1ccc(O[P@@](=O)(CO[C@H](C)Cn2cnc3c(N)ncnc32)N[C@@H](C)C(=O)OC(C)C)cc1)N(C)C`: 38000 nM; `CCCCCCOC(=O)[C@H](Cc1ccc(O[P@@](=O)(CO[C@H](C)Cn2cnc3c(N)ncnc32)N[C@@H](C)C(=O)OC(C)C)cc1)NC(=O)OCc1ccccc1`: 13000 nM; `COCCOCCOCCOC(=O)[C@H](Cc1ccc(OP(=O)(CO[C@H](C)Cn2cnc3c(N)ncnc32)N[C@@H](C)C(=O)OC(C)C)cc1)NC(=O)OCc1ccccc1` (stereo partly drawn): over 50000 nM.
`CCOC(=O)[C@H](Cc1ccc(OP(=O)(CO[C@H](C)Cn2cnc3c(N)ncnc32)N[C@@H](C)C(=O)OC(C)C)cc1)NC(=O)OCc1ccccc1` (stereo partly drawn): the midpoint of cytotoxicity, the CC50 at 120 h, lay at 11000 nM.
On the same count and under the same terms, the figure for `CC(C)OC(=O)[C@H](C)N[P@@](=O)(CO[C@H](C)Cn1cnc2c(N)ncnc21)Oc1ccc(C[C@H](NC(=O)OCc2ccccc2)C(=O)OC2CCCCC2)cc1` is 14000 nM.
Still for that read-out and setting: the figure for `CC(C)OC(=O)[C@H](C)NP(=O)(CO[C@H](C)Cn1cnc2c(N)ncnc21)Oc1ccc(C[C@H](NC(=O)OCc2ccccc2)C(=O)OCc2ccccc2)cc1` (stereo partly drawn) is 10000 nM; for `CC(C)CCOC(=O)[C@H](Cc1ccc(O[P@](=O)(CO[C@H](C)Cn2cnc3c(N)ncnc32)N[C@@H](C)C(=O)OC(C)C)cc1)NC(=O)OCc1ccccc1` it is 24000 nM; for `CCC(CC)COC(=O)[C@H](Cc1ccc(O[P@@](=O)(CO[C@H](C)Cn2cnc3c(N)ncnc32)N[C@@H](C)C(=O)OC(C)C)cc1)NC(=O)OCc1ccccc1` it is 38000 nM.
The same measure, in the same setting: the figure for `CC(C)OC(=O)[C@H](C)NP(=O)(CO[C@H](C)Cn1cnc2c(N)ncnc21)Oc1ccc(C[C@H](NC(=O)OCc2ccccc2)C(=O)OCc2cccs2)cc1` (stereo partly drawn) is 8200 nM.
Molecule `COC(=O)[C@H](Cc1ccc(O[P@@](=O)(CO[C@H](C)Cn2cnc3c(N)ncnc32)N[C@@H](C)C(=O)OC(C)C)cc1)NC(=O)c1ccccc1` came in with a CC50 at 120 h of over 50000 nM.
For `CC(C)OC(=O)[C@H](C)NP(=O)(CO[C@H](C)Cn1cnc2c(N)ncnc21)Oc1ccc(C[C@H](NC(=O)OCc2ccccc2)C(=O)OC2CCCC2)cc1` (stereo partly drawn), half-maximal cytotoxicity (CC50 at 120 h) was put at 8300 nM. This lies in the single-digit micromolar range.
Still for that read-out and setting: the figure for `COC(=O)[C@@H](N)Cc1ccc(O[P@@](=O)(CO[C@H](C)Cn2cnc3c(N)ncnc32)N[C@@H](C)C(=O)OC(C)C)cc1` is over 50000 nM; for `COC(=O)[C@H](Cc1ccc(O[P@](=O)(CO[C@H](C)Cn2cnc3c(N)ncnc32)N[C@@H](C)C(=O)OC(C)C)cc1)NC(=O)C(F)(F)F` it is over 50000 nM.

The subject of a further series is Hepatitis B virus. The experiment in a line: Antiviral activity against HBV infected in human HepG2-hNTCP cells assessed as reduction in HBV DNA incubated for day 1 followed by compound washout and fresh compound addition on following day and day 3, 6 and 10 measured on day 14 post infection by qPCR analysis. It is filed as functional, organism-based.
Details: not given
Consider `CC(C)OC(=O)[C@H](C)N[P@@](=O)(CO[C@H](C)Cn1cnc2c(N)ncnc21)Oc1ccc(C[C@H](NCCCc2ccccc2)C(=O)OC2CCCC2)cc1`, for which the concentration giving a half-maximal response (EC50) was 4 nM.
As for `CC(C)OC(=O)[C@H](C)NP(=O)(CO[C@H](C)Cn1cnc2c(N)ncnc21)Oc1ccc(C[C@H](NC(=O)OCc2ccccc2)C(=O)OC(C)C)cc1` (stereo partly drawn), the EC50 was 4.2 nM.
As for `CCOC(=O)[C@H](Cc1ccc(OP(=O)(CO[C@H](C)Cn2cnc3c(N)ncnc32)N[C@@H](C)C(=O)OC(C)C)cc1)NC(=O)OCc1ccccc1` (stereo partly drawn), the 50% effective concentration (EC50) was 3.6 nM.
Same read-out and setting: next, `CC(C)OC(=O)[C@H](C)NP(=O)(CO[C@H](C)Cn1cnc2c(N)ncnc21)Oc1ccc(C[C@H](NC(=O)OCc2ccccc2)C(=O)OC2CCCC2)cc1` (stereo partly drawn): 0.7 nM; `COC(=O)[C@H](Cc1ccc(O[P@](=O)(CO[C@H](C)Cn2cnc3c(N)ncnc32)N[C@@H](C)C(=O)OC(C)C)cc1)NC(=O)C(F)(F)F`: 1.6 nM.

Test system in another series: not listed separately
The experiment in a line: Cytotoxicity against human HepG2-hNTCP cells incubated for 3 days by XTT assay. It is filed as cell-based. Particulars: time 3 day.
`CC(C)OC(=O)[C@H](C)N[P@@](=O)(CO[C@H](C)Cn1cnc2c(N)ncnc21)Oc1ccc(C[C@H](NCCCc2ccccc2)C(=O)OC2CCCC2)cc1` had a cytotoxic concentration (CC50) at 72 h of over 50000 nM.
Still for that read-out and setting: the figure for `CC(C)OC(=O)[C@H](C)NP(=O)(CO[C@H](C)Cn1cnc2c(N)ncnc21)Oc1ccc(C[C@H](NC(=O)OCc2ccccc2)C(=O)OC(C)C)cc1` (stereo partly drawn) is over 50000 nM.
Same read-out and setting: the figure for `CCOC(=O)[C@H](Cc1ccc(OP(=O)(CO[C@H](C)Cn2cnc3c(N)ncnc32)N[C@@H](C)C(=O)OC(C)C)cc1)NC(=O)OCc1ccccc1` (stereo partly drawn) is over 50000 nM; for `CC(C)OC(=O)[C@H](C)NP(=O)(CO[C@H](C)Cn1cnc2c(N)ncnc21)Oc1ccc(C[C@H](NC(=O)OCc2ccccc2)C(=O)OC2CCCC2)cc1` (stereo partly drawn) it is over 50000 nM.
On the same count and under the same terms, the figure for `COC(=O)[C@H](Cc1ccc(O[P@](=O)(CO[C@H](C)Cn2cnc3c(N)ncnc32)N[C@@H](C)C(=O)OC(C)C)cc1)NC(=O)C(F)(F)F` is over 50000 nM.

A further series has as its system Human immunodeficiency virus 1. The experiment in a line: Antiviral activity against HIV-1 infected in MT4 cells assessed as reduction in virus-induced cytopathic effect preincubated for 1 hr followed by viral infection and measured after 5 days by XTT assay. It is filed as functional, organism-based. Particulars: Human immunodeficiency virus 1, MT4.
Take `CC(C)OC(=O)[C@H](C)N[P@@](=O)(CO[C@H](C)Cn1cnc2c(N)ncnc21)Oc1ccc(C[C@H](NC(=O)OCc2ccccc2)C(=O)OC(C)C)cc1`: the EC50 was 27 nM.
On the same count and under the same terms, next, `CC(C)OC(=O)[C@H](C)N[P@](=O)(CO[C@H](C)Cn1cnc2c(N)ncnc21)Oc1ccc(C[C@@H](NC(=O)OCc2ccccc2)C(=O)OC2CCCC2)cc1`: 0.67 nM; `CC(C)OC(=O)[C@H](C)N[P@@](=O)(CO[C@H](C)Cn1cnc2c(N)ncnc21)Oc1ccc(C[C@H](NCCCc2ccccc2)C(=O)OC2CCCC2)cc1`: 0.68 nM.
Same read-out and setting: the figure for `COC(=O)[C@H](Cc1ccc(O[P@@](=O)(CO[C@H](C)Cn2cnc3c(N)ncnc32)N[C@@H](C)C(=O)OC(C)C)cc1)NC(=O)OCc1ccccc1` is 16 nM; for `CC(C)OC(=O)[C@H](C)NP(=O)(CO[C@H](C)Cn1cnc2c(N)ncnc21)Oc1ccc(C[C@H](NC(=O)OCc2ccccc2)C(=O)OC(C)C)cc1` (stereo partly drawn) it is 1.6 nM; for `COC(=O)[C@H](Cc1ccc(O[P@](=O)(CO[C@H](C)Cn2cnc3c(N)ncnc32)N[C@@H](C)C(=O)OC(C)C)cc1)NC(=O)OCc1ccccc1` it is 30 nM.
Same read-out and setting: the figure for `COC(=O)[C@H](Cc1ccc(O[P@@](=O)(CO[C@H](C)Cn2cnc3c(N)ncnc32)N[C@@H](C)C(=O)OC(C)C)cc1)N(C)C` is 48 nM.
On to `CCCCCCOC(=O)[C@H](Cc1ccc(O[P@@](=O)(CO[C@H](C)Cn2cnc3c(N)ncnc32)N[C@@H](C)C(=O)OC(C)C)cc1)NC(=O)OCc1ccccc1`, for which the EC50 worked out at 16 nM.
In the case of `COCCOCCOCCOC(=O)[C@H](Cc1ccc(OP(=O)(CO[C@H](C)Cn2cnc3c(N)ncnc32)N[C@@H](C)C(=O)OC(C)C)cc1)NC(=O)OCc1ccccc1` (stereo partly drawn), the EC50 is 470 nM.
On the same count and under the same terms, the figure for `CCOC(=O)[C@H](Cc1ccc(OP(=O)(CO[C@H](C)Cn2cnc3c(N)ncnc32)N[C@@H](C)C(=O)OC(C)C)cc1)NC(=O)OCc1ccccc1` (stereo partly drawn) is 17 nM; for `CC(C)OC(=O)[C@H](C)N[P@@](=O)(CO[C@H](C)Cn1cnc2c(N)ncnc21)Oc1ccc(C[C@H](NC(=O)OCc2ccccc2)C(=O)OC2CCCCC2)cc1` it is 21 nM; for `CC(C)OC(=O)[C@H](C)NP(=O)(CO[C@H](C)Cn1cnc2c(N)ncnc21)Oc1ccc(C[C@H](NC(=O)OCc2ccccc2)C(=O)OCc2ccccc2)cc1` (stereo partly drawn) it is 9 nM.
Same read-out and setting: the figure for `CC(C)CCOC(=O)[C@H](Cc1ccc(O[P@](=O)(CO[C@H](C)Cn2cnc3c(N)ncnc32)N[C@@H](C)C(=O)OC(C)C)cc1)NC(=O)OCc1ccccc1` is 11 nM; for `CCC(CC)COC(=O)[C@H](Cc1ccc(O[P@@](=O)(CO[C@H](C)Cn2cnc3c(N)ncnc32)N[C@@H](C)C(=O)OC(C)C)cc1)NC(=O)OCc1ccccc1` it is 50 nM.
Still for that read-out and setting: the figure for `CC(C)OC(=O)[C@H](C)NP(=O)(CO[C@H](C)Cn1cnc2c(N)ncnc21)Oc1ccc(C[C@H](NC(=O)OCc2ccccc2)C(=O)OCc2cccs2)cc1` (stereo partly drawn) is 3.4 nM; for `COC(=O)[C@H](Cc1ccc(O[P@@](=O)(CO[C@H](C)Cn2cnc3c(N)ncnc32)N[C@@H](C)C(=O)OC(C)C)cc1)NC(=O)c1ccccc1` it is 84 nM.
Turning to `CC(C)OC(=O)[C@H](C)NP(=O)(CO[C@H](C)Cn1cnc2c(N)ncnc21)Oc1ccc(C[C@H](NC(=O)OCc2ccccc2)C(=O)OC2CCCC2)cc1` (stereo partly drawn), the EC50 came to 0.9 nM.
Same read-out and setting: next, `COC(=O)[C@@H](N)Cc1ccc(O[P@@](=O)(CO[C@H](C)Cn2cnc3c(N)ncnc32)N[C@@H](C)C(=O)OC(C)C)cc1`: 350 nM; `COC(=O)[C@H](Cc1ccc(O[P@](=O)(CO[C@H](C)Cn2cnc3c(N)ncnc32)N[C@@H](C)C(=O)OC(C)C)cc1)NC(=O)C(F)(F)F`: 540 nM.

Values taken from ChEMBL document CHEMBL4840358, “Discovery of Modified Amidate (ProTide) Prodrugs of Tenofovir with Enhanced Antiviral Properties” (J Med Chem, 2021).
